Drawing on US20220324865A1 (Bayer Aktiengesellschaft, priority 2018, published 2022), this text covers IC50 for 52 molecules.

In this assay the target is T1, human EP3 receptor (Homo sapiens, UniProt P43115).
T1 construct: expressed in transfected cells; host or cells: CHO K1 (Chinese Hamster Ovary), stably co-transfected with Galpha16 and mitochondrial clytin
T1 sequence (P43115 1-390): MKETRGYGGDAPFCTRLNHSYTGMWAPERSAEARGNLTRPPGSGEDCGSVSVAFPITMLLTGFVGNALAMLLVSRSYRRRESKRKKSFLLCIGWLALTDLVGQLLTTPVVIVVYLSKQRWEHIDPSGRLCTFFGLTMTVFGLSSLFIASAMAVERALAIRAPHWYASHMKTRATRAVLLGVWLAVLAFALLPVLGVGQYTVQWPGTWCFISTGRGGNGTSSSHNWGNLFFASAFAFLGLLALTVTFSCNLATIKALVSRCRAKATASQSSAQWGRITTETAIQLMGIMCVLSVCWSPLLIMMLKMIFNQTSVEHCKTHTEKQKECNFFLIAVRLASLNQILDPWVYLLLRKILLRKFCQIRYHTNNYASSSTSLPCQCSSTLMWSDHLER
Description: Cellular in vitro assay for determining EP3 receptor activity (human EP3 cell line, sulprostone-stimulated calcium luminescence). The class given is cell-based. As to conditions: CHO cells expressing human EP3 and mitochondrial Clytin; antagonist mode, sulprostone at EC50; read-out: EP3 CHO mtCLY ANTAG IC50. The gist of the method:
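CHO K1 cells stably expressing human EP3 with Gα16 and mitochondrial Clytin, loaded overnight with coelenterazine. Compounds added 10 min before sulprostone at its EC50; antagonism read immediately as reduced calcium-driven luminescence, quadruplicate points.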
The IC50 is the point on the concentration scale where inhibition reaches its midpoint. Turning to `O=C(NCC(O)C(F)(F)F)c1nn2cc(-c3ccc(Cl)c(Cl)c3)[nH]c(=O)c2c1C1CC1` (single isomer, unassigned) [6-417], the IC50 turned out to be 1.85 nM. On to `O=C(NC(c1ccc(F)cc1)C1(O)CC1)c1nn2cc(-c3ccc(Cl)c(Cl)c3)[nH]c(=O)c2c1C1CC1` (single isomer, unassigned) [6-423], for which the IC50 is 0.62 nM.

Regarding `O=C(NC(c1ccc(F)cc1)C1(O)CC1)c1nn2cc(-c3ccc(Cl)c(Cl)c3)[nH]c(=O)c2c1C1CC1` (single isomer, unassigned) [6-424], the concentration for half-maximal inhibition (IC50) worked out at 0.68 nM.

On to `Cc1ccc(-c2cn3nc(C(=O)NCC(N)C(F)(F)F)c(C4CC4)c3c(=O)[nH]2)cc1C` (single isomer, unassigned) [6-432], for which the 50% inhibitory concentration (IC50) was 1.1 nM.

On to `Cc1ccc(-c2cn3nc(C(=O)NCC(N)C(F)(F)F)c(C4CC4)c3c(=O)[nH]2)cc1C` (single isomer, unassigned) [6-433], for which the 50% inhibitory concentration (IC50) was 0.76 nM. Turning to `Cc1ccc(-c2cn3nc(C(=O)NCC(O)C(F)(F)F)c(C4CC4)c3c(=O)[nH]2)cc1C` (single isomer, unassigned) [6-436], the IC50 came to 0.84 nM.

For `Cc1ccc(-c2cn3nc(C(=O)NCC(O)C(F)(F)F)c(C4CC4)c3c(=O)[nH]2)cc1C` (single isomer, unassigned) [6-437], the IC50 was 0.77 nM. The same measure for `Cc1ccc(-c2cn3nc(C(=O)NC(CN(C)C)c4ccc(F)cc4)c(C4CC4)c3c(=O)[nH]2)cc1C` (single isomer, unassigned) [6-445]: 7.1 nM. Take `Cc1ccc(-c2cn3nc(C(=O)NC(CN(C)C)c4ccc(F)cc4)c(C4CC4)c3c(=O)[nH]2)cc1C` (single isomer, unassigned) [6-446]: the half-maximal inhibitory concentration (IC50) is 8.05 nM. Turning to `Cc1ccc(-c2cn3nc(C(=O)NC(C)CN4CCOCC4)c(C4CC4)c3c(=O)[nH]2)cc1C` (single isomer, unassigned) [6-451], the IC50 came out at 5.35 nM. The same measure for `Cc1ccc(-c2cn3nc(C(=O)NC(C)CN4CCOCC4)c(C4CC4)c3c(=O)[nH]2)cc1C` (single isomer, unassigned) [6-452]: 6.2 nM; for `Cc1ccc(-c2cn3nc(C(=O)NC4CCN(CC(F)F)C4)c(C4CC4)c3c(=O)[nH]2)cc1C` (single isomer, unassigned) [6-454]: 4.75 nM. The same measure for `Cc1ccc(-c2cn3nc(C(=O)NC(c4ccc(C(F)(F)F)cc4)C(C)(C)O)c(C4CC4)c3c(=O)[nH]2)cc1C` (single isomer, unassigned) [6-458]: 2.15 nM; for `Cc1ccc(-c2cn3nc(C(=O)NC(c4ccc(C(F)(F)F)cc4)C(C)(C)O)c(C4CC4)c3c(=O)[nH]2)cc1C` (single isomer, unassigned) [6-459]: 5.6 nM. To `O=C(NC1CCN(C2CC2)C1)c1nn2cc(-c3ccc4ccccc4c3)[nH]c(=O)c2c1C(F)(F)F` (single isomer, unassigned) [6-500] belongs 6.75 nM; to `O=C(NC1CCN(C2CC2)C1)c1nn2cc(-c3ccc4ccccc4c3)[nH]c(=O)c2c1C(F)(F)F` (single isomer, unassigned) [6-501], 5.7 nM.

`O=C(NC1CCN(CC(F)F)C1)c1nn2cc(-c3ccc4ccccc4c3)[nH]c(=O)c2c1C(F)(F)F` (single isomer, unassigned) [6-519]: the IC50 was 6.9 nM. The same measure for `O=C(NC1CCN(CC(F)F)C1)c1nn2cc(-c3ccc4ccccc4c3)[nH]c(=O)c2c1C(F)(F)F` (single isomer, unassigned) [6-520]: 3.15 nM; for `CC(CN1CCOCC1)NC(=O)c1nn2cc(-c3ccc4ccccc4c3)[nH]c(=O)c2c1C(F)(F)F` (single isomer, unassigned) [6-523]: 10.9 nM; for `CC(CN1CCOCC1)NC(=O)c1nn2cc(-c3ccc4ccccc4c3)[nH]c(=O)c2c1C(F)(F)F` (single isomer, unassigned) [6-524]: 7 nM.

For the molecule `O=C(NCC(O)C(F)(F)F)c1nn2cc(-c3ccc4c(c3)OCCO4)[nH]c(=O)c2c1C(F)(F)F` (single isomer, unassigned) [6-532], the 50% inhibitory concentration (IC50) stood at 8.9 nM. The same measure for `O=C(NCC(O)C(F)(F)F)c1nn2cc(-c3ccc4c(c3)OCCO4)[nH]c(=O)c2c1C(F)(F)F` (single isomer, unassigned) [6-533]: 5.55 nM; for `CC(NC(=O)c1cc2c(=O)[nH]c(-c3ccc4ccccc4c3)cn2n1)c1ccc(O)cc1` (single isomer, unassigned) [6-542]: 10.5 nM; for `CC(NC(=O)c1cc2c(=O)[nH]c(-c3ccc4ccccc4c3)cn2n1)c1ccc(O)cc1` (single isomer, unassigned) [6-543]: 3.3 nM. The same measure for `Cc1cc(-c2cn3nc(C(=O)NC(c4ccc(F)cc4)C4(O)CC4)c(C4CC4)c3c(=O)[nH]2)ccc1F` (single isomer, unassigned) [6-651]: 1 nM; for `Cc1cc(-c2cn3nc(C(=O)NC(c4ccc(F)cc4)C4(O)CC4)c(C4CC4)c3c(=O)[nH]2)ccc1F` (single isomer, unassigned) [6-652]: 10 nM.

For `Cc1cc(-c2cn3nc(C(=O)NCC(O)C(F)(F)F)c(C4CC4)c3c(=O)[nH]2)ccc1F` (single isomer, unassigned) [6-655], the IC50 was found to be 9.35 nM. To `Cc1ccc(-c2cn3nc(C(=O)NCC(O)C(F)(F)F)c(C4CC4)c3c(=O)[nH]2)cc1F` (single isomer, unassigned; enantiomer1) [Example 1-160, 3-Cyclopropyl-6-(3-fluoro-4-methylphenyl)-4-oxo-N-(3,3,3-trifluoro-2-hydroxpropyl)-4,5-dihydropyrazolo[1,5-a]pyrazine-2-carboxamide (enantiomer1)] belongs 3.55 nM; to `Cc1ccc(-c2cn3nc(C(=O)NCC(O)C(F)(F)F)c(C4CC4)c3c(=O)[nH]2)cc1F` (single isomer, unassigned; enantiomer2) [Example 1-161, 3-Cyclopropyl-6-(3-fluoro-4-methylphenyl)-4-oxo-N-(3,3,3-trifluoro-2-hydroxpropyl)-4,5-dihydropyrazolo[1,5-a]pyrazine-2-carboxamide (enantiomer2)], 5.7 nM; to `Cc1ccc(-c2cn3nc(C(=O)NC(C)c4cnc(OCC(F)(F)F)cn4)cc3c(=O)[nH]2)cc1C` (stereo not shown) [6-2], 3.85 nM. To `Cc1ccc(-c2cn3nc(C(=O)NC(C)COc4cc(Cl)cc(Cl)c4)cc3c(=O)[nH]2)cc1C` (stereo not shown) [6-3] belongs 7.95 nM.

With `Cc1c(C(=O)NC2(c3ccc(F)cc3)CCN(CC(F)(F)F)CC2)nn2cc(-c3ccc4ccccc4c3)[nH]c(=O)c12` [6-5], the IC50 amounted to 4.85 nM.

On to `CC(NC(=O)c1cc2c(=O)[nH]c(-c3ccc4ccccc4c3)cn2n1)c1ccc(OCC(F)(F)F)cn1` (stereo not shown) [6-6], for which the IC50 was 2.8 nM. The same measure for `CC(NC(=O)c1cc2c(=O)[nH]c(-c3ccc4ccccc4c3)cn2n1)c1cnc(OCC(F)(F)F)cn1` (stereo not shown) [6-7]: 7 nM; for `O=C(NCc1ncc(C(F)(F)F)cc1Cl)c1nn2cc(-c3ccc4ccccc4c3)[nH]c(=O)c2c1C(F)(F)F` [6-8]: 1.05 nM. The same measure for `Cc1ccc(-c2cn3nc(C(=O)NCc4ncc(C(F)(F)F)cc4Cl)cc3c(=O)[nH]2)cc1C` [6-9]: 5.75 nM. The same measure for `CCn1cc(CNC(=O)c2nn3cc(-c4ccc5ccccc5c4)[nH]c(=O)c3c2Cl)c(C)n1` [6-10]: 1.4 nM. Consider `O=C(N[C@H](CCO)c1ccc(F)cc1)c1cc2c(=O)[nH]c(-c3cnc4ccccc4c3)cn2n1` [6-11], for which the IC50 is 4.65 nM. As for `O=C(N[C@H](CCO)c1ccc(F)cc1)c1cc2c(=O)[nH]c(-c3ccc4ccccc4n3)cn2n1` [6-12], the IC50 was found to be 3.05 nM.

Consider `CCn1nccc1CNC(=O)c1nn2c(C)c(-c3ccc(C)c(C)c3)[nH]c(=O)c2c1C(F)(F)F` [6-13], for which the IC50 was 9.3 nM. To `O=C(NCCc1ccccc1)c1cc2c(=O)[nH]c(-c3ccc4ccccc4c3)cn2n1` [6-14] belongs 8.25 nM; to `COc1ccc(CCNC(=O)c2cc3c(=O)[nH]c(-c4ccc(C)c(Cl)c4)cn3n2)cc1OC` [6-15], 2.37 nM; to `O=C(NCc1ccccc1)c1cc2c(=O)[nH]c(-c3ccc4ccccc4c3)cn2n1` [6-16], 4.16 nM. To `COC(=O)C(NC(=O)c1cc2c(=O)[nH]c(-c3ccc4ccccc4c3)cn2n1)c1ccc(F)cc1` (stereo not shown) [6-17] belongs 3.75 nM; to `O=C(NC1(c2ccc(F)cc2)CC1)c1cc2c(=O)[nH]c(-c3ccc4ccccc4c3)cn2n1` [6-18], 1.75 nM; to `CC(NC(=O)c1cc2c(=O)[nH]c(-c3ccc4ccccc4c3)cn2n1)c1ccc(F)cc1` (stereo not shown) [6-19], 3.1 nM. With `O=C(NCCc1ccccc1)c1cc2c(=O)[nH]c(-c3ccc4c(c3)OCCO4)cn2n1` [6-21], the half-maximal inhibitory concentration (IC50) is 5.35 nM.

On to `Cc1ccc(-c2cn3nc(C(=O)NCc4ccccc4)cc3c(=O)[nH]2)cc1C` [6-22], for which the IC50 was 4 nM. The same measure for `O=C(NC1(c2ccc(F)cc2)CC1)c1cc2c(=O)[nH]c(-c3ccc4c(c3)OCCO4)cn2n1` [6-23]: 3.1 nM. The same measure for `Cc1ccc(-c2cn3nc(C(=O)NC4(c5ccc(F)cc5)CC4)cc3c(=O)[nH]2)cc1C` [6-24]: 2.03 nM. The same measure for `Cc1ccc(-c2cn3nc(C(=O)NC(C)c4ccc(F)cc4)cc3c(=O)[nH]2)cc1C(F)(F)F` (stereo not shown) [6-25]: 9.1 nM; for `Cc1ccc(-c2cn3nc(C(=O)NC4(c5ccc(F)cc5)CC4)cc3c(=O)[nH]2)cc1C(F)(F)F` [6-26]: 5 nM.
